# Tests used:
# [1] = test system: fatty acid oxidation in mouse liver; assay: Ex vivo fatty acid oxidation in liver homogenates (14C-CO2 capture); settings: liver extracts from animals treated for 28 days
# Experimental: Fatty acid oxidation (FAO) was determined by ^14C-labeled CO2 capture from tissue homogenates using a method modified from Dohm et al.. Following treatment with either vehicle or a PPAR agonist, livers from fed mice were surgically removed and a section excised from the same lobe. The tissue was immediately weighed, minced with scissors and placed in tubes (Falcon #2063) on ice. Cold SET buffer (250 mM Sucrose, 1 mM EDTA, 10 mM Tris, pH 7.4) was added at a ratio of 10 mL SET:1 gram of tissue and the tissue homogenized on ice for 15 sec using a hand-held homogenizer (Polytron PT1200; Kinematica AG). The homogenates remained on ice until assayed.
# The labeled reaction buffer was prepared by first drying ^14C-oleic acid (0.5 μCi/reaction; PerkinElmer #NEC-317) under nitrogen. The dried fraction is re-suspended in unlabeled oleic acid such that the final concentration of oleic acid in the reaction buffer was 0.2 mM. BSA was added slowly while mixing to a final concentration of 0.5% and the mixture was incubated at 37°C for 15 minutes. The labeled cocktail was then added to the reaction buffer to give a produce concentration of 100 mM sucrose, 10 mM Tris pH 7.4, 4 mM ATP, 0.05 mM Coenzyme A, 0.1 mM malic acid, 1 mM magnesium chloride, 80 mM potassium chloride, 5 mM potassium phosphate, 0.2 mM EDTA, and 2 mM L-carnitine, as described previously.
# Oxidation reactions were performed in tubes (Falcon #352059) fitted with a stopper top (KONTES Glass Co., #882310-0000), center well (KONTES #882320-0000), and filter (Socorex #322.02) soaked with 175 μL of 1N NaOH. 100 μL of homogenate was dispensed into each tube and the reactions initiated by adding 400 μL of reaction buffer. The tubes were quickly capped and incubated with gentle shaking for 60 minutes in a 37°C water bath. After incubation, the filters were removed, from the tubes, placed in 7 mL of scintillant, and counted for 2 minutes (PerkinElmer Tri-Carb 3100TR). The oxidative activity of each compound was calculated as nmole CO2 captured/gram tissue/hour and reported as fold change relative to vehicle control.
# (§1) On the final day of each experiment, a terminal blood sample (800–1000 μL) was obtained via cardiac puncture under isoflurane anesthesia. Whole blood was placed in a Terumo Capiject blood collection tube (Terumo Medical Corp., Elkton, Md, USA), allowed to sit at room temperature for 20 minutes then centrifuged to obtain serum. Serum levels of glucose, triglycerides, glycerol, nonesterified fatty acids, total cholesterol, the high-density lipoprotein cholesterol, and β-hydroxybutyrate were determined in all mice using an Olympus AU640 clinical chemistry immuno-analyzer (Olympus America Inc., Melville, NY, USA). In addition, liver weights were obtained following the terminal blood sample on the final day of the study and samples were used to determine liver fatty acid oxidation activity.
# [2] = test system: diet-induced obese (DIO) AKR/J mouse; assay: Food consumption in diet-induced obese AKR/J mice; format: in vivo; settings: for effect on food consumption (in words): compared to vehicle-treated animals, doses and regimen as in methods
# Experimental: (§2) In each experiment, BW of each animal was measured and recorded three times weekly throughout the treatment period. Body mass was obtained weekly on days 0, 7, 13, 20, and 27 of treatment. The effects of selective PPARα, δ, and γ agonists on food consumption were also assessed. Food consumption is expressed as total energy consumed (kcal) over a 24-period and as cumulative consumption over the course of the experiment.
# The fat content of Research Diets D12331 chow results in pellets that crumbles making it difficult to quantify food consumption thus, Research Diets D12451 chow (4.7 kcal/g (45% kcal from fat, 35% kcal from carbohydrates and 20% kcal from protein)) was used in studies where food consumption was determined as these pellets are more solid. The animals were transitioned two weeks before compound dosing from Research Diets D12331 chow to Research Diets D12451 chow. Previous experiments (data not presented) have shown that animals fed this diet maintain the same BW and fat mass level as observed at the time of transition.
# (§3) Experiment 1 was designed to study the effects of a selective PPARα agonist and PPARδ agonist as mono and combination therapy. 48 mice were sorted into 6 groups and blocked such that initial BW and body composition were not different between groups. […] Two additional groups of mice were dosed for the first 14 days with either a PPARα agonist or a PPARδ agonist alone. At day 15, the PPARδ agonist was added to the treatment regimen of animals dosed with PPARα, and the PPARα agonist was added to the dosing material of animals previously dosed with PPARδ alone. The sixth group was dosed with both the PPARα and PPARδ agonists for the entire 28-day period. BW and food consumption were assessed 3 times per week and body composition was measured weekly.
# In Experiment 2, 32 mice were sorted into 4 groups (n = 8/group) and dosed with vehicle and a selective PPARγ agonist (GW7845, 3 mg/kg) for 28 days. Rimonabant (RIM, 10 or 30 mg/kg, q.d.), a CB1 receptor antagonist, was used as a positive control for weight loss. As in Experiment 1, BW and food consumption were determined 3 times per week and body composition was measured weekly.
# [3] = test system: diet-induced obese (DIO) AKR/J mouse; assay: Body weight, body composition (qMR) and liver weight in diet-induced obese AKR/J mice; format: in vivo; settings: for BW day 28 / effect on FM (in words) / effect on LM (in words) / increase in liver weight / effect on BW (in words) / Fat mass day 28 / Lean mass day 28 / Liver weight: 28 days; for effect on FM (in words) / effect on LM (in words): doses as in methods; for increase in liver weight: PPARα agonist 1 mg/kg or PPARδ agonist 30 mg/kg alone; for BW day 0: baseline before treatment; for effect on BW (in words): oral, GW9578 1, GW0742 30, GW7845 3, RIM 10 and 30 mg/kg, PPARpan agonists; for Fat mass day 28 / Lean mass day 28: qMR; for Liver weight: terminal collection
# Experimental: The effects of monotherapy with selective PPAR agonists, combination therapy with PPARα and PPARδ, and treatment with PPARpan agonists were evaluated in four experiments in diet-induced obese (DIO) AKR/J mouse. The AKR/J mouse is a polyoma-susceptible strain originally utilized to study accelerated tumor development. This strain becomes obese and hyperinsulemic when fed a high fat diet. Age-matched, male AKR/J mice were allowed ad libitum access to Research Diet D12331 (Research Diet, Brunswick, NJ) at the Jackson Laboratories (Bar Harbor, ME) beginning at 6 weeks of age. The diet has an energy density of 5.56 kcal/g (58% kcal from fat; 26% kcal from carbohydrates, and 16% kcal from protein). The animals were allowed to become obese, achieving BW >40 grams before shipping to GlaxoSmithKline laboratory animal facility at 13 weeks of age. The mice were housed 4 per cage in standard shoebox cages and were fed the high fat diet until they reached approximately 50 grams. Age-matched lean control animals obtained from Jackson Laboratories were fed a diet of normal chow (3.04 kcal/g energy density, 12% kcal from fat, LabDiet 5001, St. Louis, MO) and used for comparison.
# At the beginning of each study, the animals were weighed and body composition obtained using an EchoMRI-100 quantitative magnetic resonance (qMR, EchoMRI, Houston, TX) whole body composition analyzer. […] 16 lean control mice on standard chow were used as reference. All mice were dosed orally with vehicle (0.5% methylcellulose and 0.1% Tween 80, 10 mL/kg) for six days prior to the beginning of dosing for acclimation to handling and treatment before drug treatment was initiated.
# as §2, §1, §3
# In Experiment 2, 32 mice were sorted into 4 groups (n = 8/group) and dosed with vehicle and a selective PPARγ agonist (GW7845, 3 mg/kg) for 28 days. Rimonabant (RIM, 10 or 30 mg/kg, q.d.), a CB1 receptor antagonist, was used as a positive control for weight loss. […]
smiles,measurement,setting,value
Cc1cc(SCc2sc(-c3ccc(C(F)(F)F)c(F)c3)nc2C)ccc1OCC(=O)O [GW0742],effect on liver FAO (in words),[1],significant increase in liver FAO
same,increase in FAO,[1]; relative to vehicle control,1.9 fold
same,effect on food consumption (in words),[2],transient stimulatory effect on food intake from days 12–17
same,effect on food consumption (in words),[2]; listed as PPARδ agonist,small but statistically significant increase in feeding
same,BW day 28,[3]; 30 mg/kg oral,50.2 ± 1.2 grams
same,effect on FM (in words),[3],slight decrease in FM
same,effect on LM (in words),[3],LM was unaffected
same,increase in liver weight,[3],~1 gram
same,BW day 0,[3]; group dosed 30 mg/kg oral,51.6 ± 1.1 grams
same,effect on BW (in words),[3],neither compound induced a sustained decrease in BW
same,Fat mass day 28,[3]; 30 mg/kg oral,18.4 ± 0.7 grams
same,Lean mass day 28,[3]; 30 mg/kg oral,29.7 ± 0.7 grams
same,Liver weight,[3]; 30 mg/kg oral,3.2 ± 0.1 grams
CCCCCCCN(CCc1ccc(SC(C)(C)C(=O)O)cc1)C(=O)Nc1ccc(F)cc1F [GW9578],effect on liver FAO (in words),[1],not different from vehicle
same,effect on food consumption (in words),[2],significant suppression of food intake
same,effect on food consumption (in words),[2]; listed as PPARα agonist,reduced food consumption
same,BW day 28,[3]; 1 mg/kg oral,51.3 ± 1.6 grams
same,effect on FM (in words),[3],slight decrease in FM
same,effect on LM (in words),[3],LM was unaffected
same,increase in liver weight,[3],~1 gram
same,BW day 0,[3]; group dosed 1 mg/kg oral,52.1 ± 1.1 grams
same,effect on BW (in words),[3],neither compound induced a sustained decrease in BW
same,Fat mass day 28,[3]; 1 mg/kg oral,18.4 ± 0.9 grams
same,Lean mass day 28,[3]; 1 mg/kg oral,30.9 ± 0.8 grams
same,Liver weight,[3]; 1 mg/kg oral,2.6 ± 0.1 grams
COC(=O)c1ccccc1N[C@@H](Cc1ccc(OCCc2nc(-c3ccccc3)oc2C)cc1)C(=O)O [GW7845],effect on liver FAO (in words),[1],no effect on FAO in mouse liver
same,effect on liver FAO (in words),[1]; listed as PPARγ agonist,not different from vehicle
same,increase in food consumption,"[2]; 3 mg/kg, after only one day",46%
same,food consumption elevated,"[2]; 3 mg/kg, over the remaining treatment period",more than 20%
same,BW day 28,[3]; 3 mg/kg oral,54.6 ± 1.7 grams
same,effect on FM (in words),[3],significant increase in FM
same,BW day 0,[3]; group dosed 3 mg/kg oral,50.9 ± 1.2 grams
same,effect on BW (in words),[3],steady and consistent increase in BW
same,Fat mass day 28,[3]; 3 mg/kg oral,23.5 ± 1.3 grams
same,Lean mass day 28,[3]; 3 mg/kg oral,28.7 ± 0.6 grams
same,Liver weight,[3]; 3 mg/kg oral,2.0 ± 0.1 grams

# From PMC1940322, “The Effect of PPARα, PPARδ, PPARγ, and PPARpan Agonists on Body Weight, Body Mass, and Serum Lipid Profiles in Diet-Induced Obese AKR/J Mice” (PPAR Research, 2007)
